The values that follow come from PubChem BioAssay (NCI).

Several values for one entry are separate records, joined by “and”; a condition that tells them apart may be missing. Identical values can stand only once.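 In this assay, cells in 96-well plates receive the compound at five concentrations for 48 hours. Endpoints are linearly interpolated between the surrounding concentrations. GI50 marks 50% less growth. The concentration for full growth arrest is given as TGI.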

Test systems include A549 NSCLC; 786-0 renal; UO-31 renal; TK-10 renal; HOP-92 NSCLC; UACC-257 melanoma; SN12C renal; NCI-H23 lung; RXF 393 renal; NCI-H226 lung.
What all share (assay): NCI anticancer screen, dose series, 48 h

On to `O=[N+]([O-])/C(Cl)=C(\NCCO)C(Cl)=C(Cl)Cl`, for which the TGI in the assay on A549 NSCLC is greater than 100 µM; in the assay with 786-0 renal, 73.8 µM; in the assay on UO-31 renal it was greater than 86.4 µM; with TK-10 renal, greater than 100 µM; in the assay with HOP-92 NSCLC, greater than 100 µM; in the assay on UACC-257 melanoma, greater than 100 µM. In addition, the TGI with SN12C renal is greater than 100 µM; in the assay with NCI-H23 lung, greater than 100 µM; in the assay with RXF 393 renal it was greater than 96.3 µM; with NCI-H226 lung, greater than 100 µM.
Turning to `CC(Cl)(CCC(Cl)C(C)(C)Cl)C(=O)CBr` (configuration not stated), the TGI amounted to 43 µM in the assay on A549 NSCLC; 20.7 µM with 786-0 renal; 22 µM in the assay with UO-31 renal; 24.1 µM in the assay with TK-10 renal; 20.8 µM in the assay on HOP-92 NSCLC; 25.5 µM in the assay with UACC-257 melanoma. Besides, the TGI turned out to be 28.7 µM in the assay on SN12C renal, 39.5 µM in the assay with NCI-H23 lung, 11.2 µM in the assay with RXF 393 renal and 33.7 µM with NCI-H226 lung.
On to `CCOP(=O)(OCC)C(c1ccccc1)N(C(=O)NC(F)(F)F)c1ccc(C)cc1` (configuration not stated), for which the TGI in the assay on A549 NSCLC, with 786-0 renal, in the assay with UO-31 renal, in the assay with TK-10 renal, with HOP-92 NSCLC and in the assay on UACC-257 melanoma was greater than 100 µM each time. In addition, the TGI with SN12C renal, with NCI-H23 lung, in the assay with RXF 393 renal and in the assay with NCI-H226 lung was greater than 100 µM each time.
On to `C(=Nc1ccc(-c2nc3ccccc3s2)cc1)c1cccs1`, for which the TGI with A549 NSCLC was greater than 100 µM; in the assay on 786-0 renal it was greater than 100 µM; in the assay with UO-31 renal, greater than 100 µM; with TK-10 renal, 78 µM; in the assay with HOP-92 NSCLC, 90.7 µM; in the assay with UACC-257 melanoma, greater than 100 µM. Also, the TGI with SN12C renal is greater than 100 µM; with NCI-H23 lung, greater than 100 µM; in the assay on RXF 393 renal, 85.3 µM; in the assay on NCI-H226 lung, greater than 100 µM.
For the compound `O=C(NC1=C(Cl)C(=O)c2ccccc2C1=O)C(=O)c1c(O)c2ccccc2oc1=O`, the TGI in the assay on A549 NSCLC came to 6.07 µM; in the assay on 786-0 renal it was 19 µM; in the assay with UO-31 renal, 21.1 µM; in the assay on TK-10 renal it was 37.7 µM; in the assay with HOP-92 NSCLC it was 32.3 µM; in the assay on UACC-257 melanoma, 3.17 µM. The TGI came out at 14.3 µM in the assay on SN12C renal, 4.38 µM in the assay with NCI-H23 lung, 21.9 µM in the assay with RXF 393 renal and 28.9 µM in the assay with NCI-H226 lung.
Regarding `CC1(C)CC(=O)C2=C(C1)NC(=S)C(C#N)C2c1ccccc1` (configuration not stated), the TGI in the assay with A549 NSCLC, with 786-0 renal, with UO-31 renal, in the assay on TK-10 renal, in the assay with HOP-92 NSCLC and in the assay on UACC-257 melanoma was greater than 100 µM in each case. In addition, the TGI in the assay on SN12C renal, with NCI-H23 lung, in the assay with RXF 393 renal and in the assay with NCI-H226 lung was greater than 100 µM throughout.
With `O=C(Oc1cncc(Cl)c1)c1cc2ccccc2sc1=O`, the TGI with A549 NSCLC, in the assay on 786-0 renal, with UO-31 renal, in the assay with TK-10 renal, with HOP-92 NSCLC and in the assay on UACC-257 melanoma was greater than 100 µM in each case. Moreover, the TGI with SN12C renal was greater than 100 µM; with NCI-H23 lung, greater than 100 µM; with RXF 393 renal it was 91.1 µM; in the assay on NCI-H226 lung it was 57.1 µM.
As to `O=C(NNC(=O)c1ccncc1)C(=O)Nc1cc(Cl)c(Cl)cc1Cl`, the TGI in the assay with A549 NSCLC, in the assay on 786-0 renal, in the assay on UO-31 renal, in the assay on TK-10 renal, in the assay with HOP-92 NSCLC and in the assay on UACC-257 melanoma was greater than 100 µM each time. Also, the TGI in the assay with SN12C renal, in the assay with NCI-H23 lung, in the assay with RXF 393 renal and in the assay with NCI-H226 lung was greater than 100 µM throughout.
On to `CNCC(SC)c1ccc(O)c(O)c1` (configuration not stated), for which the TGI in the assay with A549 NSCLC is greater than 100 µM; with 786-0 renal it was 39.1 µM; in the assay with UO-31 renal, greater than 100 µM; with TK-10 renal it was 34 µM; with HOP-92 NSCLC, 39.3 µM; in the assay on UACC-257 melanoma it was 27.9 µM. Besides, the TGI is 45.8 µM with SN12C renal, greater than 100 µM with NCI-H23 lung, greater than 100 µM with RXF 393 renal and greater than 100 µM in the assay on NCI-H226 lung.
In the case of `COC1(C)CCC(OS(C)(=O)=O)CO1` (configuration not stated), the TGI in the assay on A549 NSCLC, with 786-0 renal, with UO-31 renal, with TK-10 renal, with HOP-92 NSCLC and in the assay with UACC-257 melanoma was greater than 100 µM each time. Moreover, the TGI in the assay with SN12C renal, in the assay with NCI-H23 lung, in the assay with RXF 393 renal and in the assay with NCI-H226 lung was greater than 100 µM in each case.
With `C=CCN1C(=O)C[C@H](Cc2ccccc2)NC(=O)C[C@H](Cc2ccccc2)N(CC=C)C(=O)C[C@H](Cc2ccccc2)NC(=O)C[C@@H]1Cc1ccccc1`, the TGI with A549 NSCLC is greater than 100 µM; with 786-0 renal, greater than 100 µM; in the assay with UO-31 renal it was greater than 100 µM; in the assay with TK-10 renal, greater than 100 µM; in the assay with HOP-92 NSCLC, 80.4 µM; in the assay with UACC-257 melanoma, greater than 100 µM. The TGI with SN12C renal, in the assay with NCI-H23 lung, with RXF 393 renal and in the assay with NCI-H226 lung was greater than 100 µM each time.
`Cc1ccc(N=Nc2c(O)ccc3ccccc23)c(C)c1`: the TGI in the assay on A549 NSCLC, in the assay on 786-0 renal, in the assay on UO-31 renal, with TK-10 renal, in the assay with HOP-92 NSCLC and with UACC-257 melanoma was greater than 100 µM in each case. Moreover, the TGI with SN12C renal, with NCI-H23 lung, in the assay on RXF 393 renal and in the assay with NCI-H226 lung was greater than 100 µM throughout.
With `C#CC(O)/C=C/C(O)CCCC(O)CC#CC(O)C#CCCCCC(O)/C=C/CCCC(=O)CCCCCCCCCCCCCCCC(O)C(O)C#CC(=O)O` (configuration not stated), the TGI in the assay with A549 NSCLC, in the assay on 786-0 renal, in the assay on UO-31 renal, in the assay on TK-10 renal, in the assay on HOP-92 NSCLC and with UACC-257 melanoma was greater than 25 µM throughout. Moreover, the TGI with SN12C renal, in the assay with NCI-H23 lung, in the assay on RXF 393 renal and in the assay with NCI-H226 lung was greater than 25 µM throughout.
For `CC(C)=CC(=O)OC1C2C(C)=CC(=O)C(O)C2(C)C2C3(O)OCC24C(CC(=O)OC14)C(C)C3O` (configuration not stated), the GI50 in the assay on A549 NSCLC was 0.0545 µM and 0.178 µM; with UO-31 renal, 0.829 µM; with TK-10 renal, 0.0511 µM; in the assay with HOP-92 NSCLC, 0.0207 µM; in the assay with UACC-257 melanoma, 0.02 µM; in the assay with SN12C renal it was 0.0133 µM and 0.0406 µM. Also, the figures for the GI50 with NCI-H23 lung, in the assay on RXF 393 renal and with NCI-H226 lung were 0.02 µM, 0.0339 µM and 0.02 µM, respectively. For the same compound, the TGI in the assay on A549 NSCLC was 0.598 µM and 1.55 µM and 2.22 µM; with 786-0 renal, 0.0834 µM; in the assay on UO-31 renal it was 0.545 µM and 4.78 µM and 1.03 µM; with TK-10 renal it was 0.0917 µM and 0.81 µM; in the assay on HOP-92 NSCLC, 0.0465 µM and 0.0367 µM; with UACC-257 melanoma it was 0.0436 µM and 0.0432 µM. In addition, the TGI with SN12C renal was 0.245 µM and 0.089 µM and 0.327 µM; with RXF 393 renal, 0.0732 µM and 0.131 µM.
In the case of `CC1(C)Cc2ccccc2C(C)(Cl)C(=O)N1` (configuration not stated), the TGI with A549 NSCLC, in the assay on 786-0 renal, in the assay with UO-31 renal, in the assay with TK-10 renal, with HOP-92 NSCLC and with UACC-257 melanoma was greater than 10 µM in each case. Moreover, the TGI in the assay with SN12C renal, with NCI-H23 lung, in the assay on RXF 393 renal and in the assay with NCI-H226 lung was greater than 10 µM throughout.
In the case of `Oc1c(NCn2nc(CCCCCCCCc3nn(CNc4ccc5ccccc5c4O)c(=S)o3)oc2=S)ccc2ccccc12`, the TGI with A549 NSCLC, in the assay with 786-0 renal, in the assay on UO-31 renal, in the assay with TK-10 renal, in the assay on HOP-92 NSCLC and in the assay on UACC-257 melanoma was greater than 100 µM in each case. The TGI with SN12C renal, with NCI-H23 lung, with RXF 393 renal and in the assay on NCI-H226 lung was greater than 100 µM each time.
On to `CC(=O)OC1C2CCC3CC2C2(SCCS2)C31` (configuration not stated), for which the TGI in the assay with A549 NSCLC, with 786-0 renal, in the assay on UO-31 renal, in the assay with TK-10 renal, with HOP-92 NSCLC and in the assay on UACC-257 melanoma was greater than 100 µM throughout. Also, the TGI with SN12C renal, with NCI-H23 lung, in the assay with RXF 393 renal and with NCI-H226 lung was greater than 100 µM each time.
Take `COc1c(NC(C)=O)c2ccccc2c2ccccc12`: the TGI in the assay on A549 NSCLC, with 786-0 renal, with UO-31 renal, in the assay with TK-10 renal, in the assay with HOP-92 NSCLC and with UACC-257 melanoma was greater than 100 µM in each case. For the same compound, the TGI in the assay with SN12C renal, in the assay on NCI-H23 lung, with RXF 393 renal and in the assay with NCI-H226 lung was greater than 100 µM in each case.
In the case of `CC(C)(C)c1cc(C(C)(C)C)c(SC2OC(CO)C(O)C(O)C2O)c(O)c1O` (configuration not stated), the TGI in the assay with A549 NSCLC is 21.3 µM; in the assay on 786-0 renal, 30.4 µM; in the assay on UO-31 renal it was 79.2 µM; in the assay on TK-10 renal, 46.3 µM; in the assay on HOP-92 NSCLC, greater than 42.6 µM; with UACC-257 melanoma, greater than 72.6 µM. Besides, the TGI was 25.8 µM in the assay on SN12C renal, 17.9 µM in the assay with NCI-H23 lung, 14.1 µM in the assay with RXF 393 renal and 36.7 µM in the assay with NCI-H226 lung.
Take `C=CCCCN(C(=O)c1ccccc1)c1ccc(C(=O)OC)o1`: the TGI in the assay with A549 NSCLC, with 786-0 renal, with UO-31 renal, with TK-10 renal, with HOP-92 NSCLC and with UACC-257 melanoma was greater than 100 µM in each case. Besides, the TGI in the assay on SN12C renal, in the assay with NCI-H23 lung, in the assay with RXF 393 renal and with NCI-H226 lung was greater than 100 µM each time.
For the compound `COC(=O)CCCc1nc2ccccc2nc1N=Nc1ccccc1`, the TGI in the assay with A549 NSCLC, in the assay with 786-0 renal, in the assay with UO-31 renal, in the assay with TK-10 renal, in the assay on HOP-92 NSCLC and in the assay on UACC-257 melanoma was greater than 100 µM in each case. The TGI in the assay with SN12C renal, in the assay with NCI-H23 lung, in the assay with RXF 393 renal and in the assay with NCI-H226 lung was greater than 100 µM each time.
